Measured values: PubChem BioAssay AID2060890 (Molecular Pharmacology Branch, DTP, NCI, 2025)

Tested on: LG0703-F948-PDC complex spheroid viability
Test: Anticancer human tumor LG0703-F948-PDC patient-derived lung adenocarcinoma cell line growth inhibition [RAS]
Settings: for viability, T/C: stronger effect = lower value; active = viability on the fitted dose curve at most 10% of control; inactive = the rest
Method in brief: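 Multi-cell-type spheroids: tumor cells plus HUVEC endothelial cells and mesenchymal stem cells. RAS-pathway inhibitors were combined with targeted agents, each dosed in half-log steps down from clinical Cmax, or from 10 microM when Cmax was unknown.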

[1] = curve of first compound, second compound 0.0316 µM
[2] = curve of first compound, second compound 0.1 µM
[3] = curve of first compound, second compound 0.316 µM
[4] = curve of first compound, second compound 1 µM
[5] = second compound 0.0316 µM, first compound 0.0316 µM
[6] = second compound 0.0316 µM, first compound 0.1 µM
[7] = second compound 0.0316 µM, first compound 0.316 µM
[8] = second compound 0.0316 µM, first compound 1 µM
[9] = second compound 0.0316 µM, first compound 3.16 µM
[10] = second compound 0.0316 µM, first compound 10 µM
[11] = second compound 0.1 µM, first compound 0.0316 µM
[12] = second compound 0.1 µM, first compound 0.1 µM
[13] = second compound 0.1 µM, first compound 0.316 µM
[14] = second compound 0.1 µM, first compound 1 µM
[15] = second compound 0.1 µM, first compound 3.16 µM
[16] = second compound 0.1 µM, first compound 10 µM
[17] = second compound 0.316 µM, first compound 0.0316 µM
[18] = second compound 0.316 µM, first compound 0.1 µM
[19] = second compound 0.316 µM, first compound 0.316 µM
[20] = second compound 0.316 µM, first compound 1 µM
[21] = second compound 0.316 µM, first compound 3.16 µM
[22] = second compound 0.316 µM, first compound 10 µM
[23] = second compound 1 µM, first compound 0.0316 µM
[24] = second compound 1 µM, first compound 0.1 µM
[25] = second compound 1 µM, first compound 0.316 µM
[26] = second compound 1 µM, first compound 1 µM
[27] = second compound 1 µM, first compound 3.16 µM
[28] = second compound 1 µM, first compound 10 µM
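Note: spheroids exposed to agents for 7 days.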
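Throughout, for viability, T/C: 100% = DMSO vehicle wells.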

CC1(O)CCCC1n1c(=O)c(C(F)F)cc2cnc(NC3CCN(S(C)(=O)=O)CC3)nc21 (stereo not drawn) + C=CC(=O)N1CCN(c2nc(OCC3CCCN3C)nc3c(F)c(-c4nc(N)cc(C)c4C(F)(F)F)c(Cl)cc23)C(C)C1
inactive: viability, T/C (second compound 0.00316 µM, first compound 0.0316 µM) 96.7% | viability, T/C (second compound 0.00316 µM, first compound 0.1 µM) 91.2% | viability, T/C (second compound 0.00316 µM, first compound 0.316 µM) 86.1% | viability, T/C (second compound 0.00316 µM, first compound 1 µM) 76.8% | viability, T/C (second compound 0.00316 µM, first compound 3.16 µM) 66.9% | viability, T/C (second compound 0.00316 µM, first compound 10 µM) 14.1% | viability, T/C (second compound 0.01 µM, first compound 0.0316 µM) 103% | viability, T/C (second compound 0.01 µM, first compound 0.1 µM) 103% | viability, T/C (second compound 0.01 µM, first compound 0.316 µM) 90.1% | viability, T/C (second compound 0.01 µM, first compound 1 µM) 72.9% | viability, T/C (second compound 0.01 µM, first compound 3.16 µM) 69% | viability, T/C (second compound 0.01 µM, first compound 10 µM) 15.8% | viability, T/C [5] 97.8% | viability, T/C [6] 104% | viability, T/C [7] 85.9% | viability, T/C [8] 76.7% | viability, T/C [9] 75.5% | viability, T/C [10] 14.7% | viability, T/C [11] 107% | viability, T/C [12] 104% | viability, T/C [13] 88% | viability, T/C [14] 75.2% | viability, T/C [15] 73.9% | viability, T/C [16] 10.9% | viability, T/C [17] 106% | viability, T/C [18] 89.5% | viability, T/C [19] 94.9% | viability, T/C [20] 75.7% | viability, T/C [21] 72% | viability, T/C [22] 9.28% | viability, T/C [23] 115% | viability, T/C [24] 105% | viability, T/C [25] 92.5% | viability, T/C [26] 76.4% | viability, T/C [27] 74.9%
4340 nM: IC50 [3]
4160 nM: IC50 (curve of first compound, second compound 0.01 µM)
active: viability, T/C [28] 6.44%
4130 nM: IC50 [4]
4670 nM: IC50 [1]
4290 nM: IC50 (curve of first compound, second compound 0.00316 µM)
4250 nM: IC50 [2]

CC(=O)OC12COC1CC(O)C1(C)C(=O)C(O)C3=C(C)C(OC(=O)C(O)C(NC(=O)OC(C)(C)C)c4ccccc4)CC(O)(C(OC(=O)c4ccccc4)C21)C3(C)C (stereo not drawn)
inactive: viability, T/C (compound 0.0316 µM) 37.1% [middle of 4 runs] | viability, T/C (compound 0.1 µM) 33.9% [middle of 4 runs] | viability, T/C (compound 0.316 µM) 39.8% [middle of 4 runs] | viability, T/C (compound 1 µM) 39.7% [middle of 4 runs] | viability, T/C (compound 3.16 µM) 43.2% [middle of 4 runs] | viability, T/C (compound 10 µM) 44.4% [middle of 4 runs]
< 31.6 nM: IC50 (curve of compound)

Cc1nc(N2CCC3(CC2)COC(C)C3N)c(CO)nc1Sc1ccnc(N)c1Cl (stereo not drawn) + C#Cc1c(F)ccc2cc(O)cc(-c3ncc4c(N5CC6CCC(C5)N6)nc(OCC56CCCN5CC(F)C6)nc4c3F)c12
inactive: viability, T/C [5] 76.2% | viability, T/C [6] 73.7% | viability, T/C [7] 47.9% | viability, T/C [8] 35.5% | viability, T/C [9] 20.1% | viability, T/C [10] 10.7% | viability, T/C [11] 83.4% | viability, T/C [12] 63% | viability, T/C [13] 47.4% | viability, T/C [14] 35.9% | viability, T/C [15] 17.6% | viability, T/C [17] 68.1% | viability, T/C [18] 60.1% | viability, T/C [19] 40.3% | viability, T/C [20] 26.4% | viability, T/C [21] 14.4% | viability, T/C [23] 52.4% | viability, T/C [24] 51.7% | viability, T/C [25] 35.8% | viability, T/C [26] 19.9% | viability, T/C [27] 15.5% | viability, T/C (second compound 3.16 µM, first compound 0.0316 µM) 50.3% | viability, T/C (second compound 3.16 µM, first compound 0.1 µM) 41.5% | viability, T/C (second compound 3.16 µM, first compound 0.316 µM) 28.5% | viability, T/C (second compound 3.16 µM, first compound 1 µM) 15% | viability, T/C (second compound 10 µM, first compound 0.0316 µM) 28.7% | viability, T/C (second compound 10 µM, first compound 0.1 µM) 29.3% | viability, T/C (second compound 10 µM, first compound 0.316 µM) 20.1% | viability, T/C (second compound 10 µM, first compound 1 µM) 10.6%
181 nM: IC50 [3]
active: viability, T/C [16] 4.95% | viability, T/C [22] 6.94% | viability, T/C [28] 7.42% | viability, T/C (second compound 3.16 µM, first compound 3.16 µM) 9.6% | viability, T/C (second compound 3.16 µM, first compound 10 µM) 5.81% | viability, T/C (second compound 10 µM, first compound 3.16 µM) 6.12% | viability, T/C (second compound 10 µM, first compound 10 µM) 2.83%
< 31.6 nM: IC50 (curve of first compound, second compound 10 µM)
287 nM: IC50 [2]
32.7 nM: IC50 (curve of first compound, second compound 3.16 µM)
370 nM: IC50 [1]
85.8 nM: IC50 [4]

CCc1c2c(nc3ccc(O)cc13)-c1cc3c(c(=O)n1C2)COC(=O)[C@]3(O)CC + CCn1c(-c2cc(N3CCN(C)CC3)cnc2C(C)OC)c2c3cc(ccc31)-c1csc(n1)CC(NC(=O)C1CC1C)C(=O)N1CCCC(N1)C(=O)OCC(C)(C)C2
< 0.949 nM: IC50 (curve of first compound, second compound 0.003 µM) | IC50 (curve of first compound, second compound 0.00949 µM) | IC50 (curve of first compound, second compound 0.03 µM) | IC50 (curve of first compound, second compound 0.0949 µM) | IC50 (curve of first compound, second compound 0.3 µM)
inactive: viability, T/C (second compound 0.000949 µM, first compound 0.000949 µM) 74.3% | viability, T/C (second compound 0.000949 µM, first compound 0.003 µM) 84.5% | viability, T/C (second compound 0.000949 µM, first compound 0.00949 µM) 54.4% | viability, T/C (second compound 0.000949 µM, first compound 0.03 µM) 62% | viability, T/C (second compound 0.000949 µM, first compound 0.0949 µM) 49.7% | viability, T/C (second compound 0.000949 µM, first compound 0.3 µM) 24.4% | viability, T/C (second compound 0.003 µM, first compound 0.000949 µM) 46.3% | viability, T/C (second compound 0.003 µM, first compound 0.003 µM) 44.4% | viability, T/C (second compound 0.003 µM, first compound 0.00949 µM) 46% | viability, T/C (second compound 0.003 µM, first compound 0.03 µM) 40.1% | viability, T/C (second compound 0.003 µM, first compound 0.0949 µM) 31.9% | viability, T/C (second compound 0.003 µM, first compound 0.3 µM) 20% | viability, T/C (second compound 0.00949 µM, first compound 0.000949 µM) 25.6% | viability, T/C (second compound 0.00949 µM, first compound 0.003 µM) 19% | viability, T/C (second compound 0.00949 µM, first compound 0.00949 µM) 19.7% | viability, T/C (second compound 0.00949 µM, first compound 0.03 µM) 17% | viability, T/C (second compound 0.00949 µM, first compound 0.0949 µM) 17.2% | viability, T/C (second compound 0.00949 µM, first compound 0.3 µM) 11.3% | viability, T/C (second compound 0.03 µM, first compound 0.000949 µM) 13.3% | viability, T/C (second compound 0.03 µM, first compound 0.003 µM) 17.8% | viability, T/C (second compound 0.03 µM, first compound 0.00949 µM) 13.5% | viability, T/C (second compound 0.03 µM, first compound 0.03 µM) 15.7% | viability, T/C (second compound 0.03 µM, first compound 0.0949 µM) 10.4% | viability, T/C (second compound 0.03 µM, first compound 0.3 µM) 9.39% | viability, T/C (second compound 0.0949 µM, first compound 0.000949 µM) 14.1% | viability, T/C (second compound 0.0949 µM, first compound 0.003 µM) 12.5% | viability, T/C (second compound 0.0949 µM, first compound 0.00949 µM) 9.68% | viability, T/C (second compound 0.0949 µM, first compound 0.03 µM) 9.08% | viability, T/C (second compound 0.0949 µM, first compound 0.0949 µM) 12.3% | viability, T/C (second compound 0.0949 µM, first compound 0.3 µM) 9.68% | viability, T/C (second compound 0.3 µM, first compound 0.000949 µM) 11.7% | viability, T/C (second compound 0.3 µM, first compound 0.003 µM) 9.88%
68.2 nM: IC50 (curve of first compound, second compound 0.000949 µM)
active: viability, T/C (second compound 0.3 µM, first compound 0.00949 µM) 8.36% | viability, T/C (second compound 0.3 µM, first compound 0.03 µM) 8.45% | viability, T/C (second compound 0.3 µM, first compound 0.0949 µM) 7.32% | viability, T/C (second compound 0.3 µM, first compound 0.3 µM) 4.88%
